Results on 9 compounds are retold here after patent US9617230B2, “Creatine prodrugs, compositions and methods of use thereof” (Farmington Pharma Development, priority 2014, dated 2017).

For data set [1] the following is noted: athletes and body builders, 2-3 gm/day; cited from earlier work.
Data set [2] can be described thus: Stability in human plasma incubations. The data set is classed as in vitro ADME. The method, then: (§1) To determine prodrug stability in mouse, rat, human or plasma from other species, prodrugs (10 μM) or positive controls (10 μM, propantheline or procaine) are incubated in undiluted plasma. Duplicate samples of prodrugs and controls are prepared and analyzed. Stock solutions of prodrugs are prepared in DMSO (10 mM) and diluted to 0.1 mM in pH 7.4 phosphate buffer to prepare spiking solutions. The prodrug spiking solutions are aliquoted (10 μL) into 96-well plates. Pre-warmed (37° C.) plasma (90 μL) is added to the wells designated for 5, 15, 30, 45 and 60 min time points; for t=0 min the quench solution (400 μL acetonitrile) is added directly to the prodrug containing well followed by 90 μL of pre-warmed plasma. At 5, 15, 30, 45 and 60 min 400 μL aliquots of acetonitrile are added to the wells to stop the reaction. After quenching, the plates are shaken for 10 min (600 rpm) and then centrifuged at 5500 g for 15 min. Aliquots (50 μL) are transferred to the analysis plate and diluted with 100 μL ultrapure water (Millipore) for LC-MSMS quantitation of prodrug concentrations, and in some cases creatine and/or creatinine. Chromatography columns (e.g., Atlantis HILIC Silica, Gemini C-18, Ultimate XB-C18) are selected based upon the lipophilicity and polarity of each prodrug. LC-MSMS platforms (e.g., Sciex API4000, Sciex API6500) are also selected based on the requirements of each prodrug. The stabilities of the compounds of the present disclosure (prodrugs) in mouse plasma incubations is shown in Table 4 and stability in human plasma incubations is shown in Table 5.

The nature of data set [3]: In vitro release of d3-creatine and d3-creatinine from d3-prodrugs in mouse liver homogenate (MLH) incubations. The data set is classed as in vitro ADME. The procedure:
For assessment of the ability of prodrugs to release creatine, and to release creatine preferentially to unwanted cyclization to creatinine, d3-labeled (deuterium labeled methyl group) prodrugs are incubated with liver homogenates (e.g., mouse, human) specially prepared to preserve N-reductase activity. The use of d3-labelled prodrugs is essential in order to distinguish prodrug-derived creatine (d3-creatine) from high concentrations of endogenous (non-labeled) creatine. Incubations (37° C.) are performed in 100 mM potassium phosphate buffer, pH 6.0 to optimize N-reductase activity. Prodrugs are tested at final concentrations of 20 μM and 200 μM. Approximately 4-5 mg of homogenate is used for each reaction. Co-factor (NADH) is included at a final concentration of 1 mM. Benzamidoxime (500 μM final concentration) is used as a positive control for N-reductase activity. N-reductase activity is confirmed by conversion of benzamidoxime into benzamidine. Negative controls include incubations without NADH (to assess NADH-independent prodrug cleavage) and incubations without liver homogenate (but with NAPD) to assess non-enzymatic prodrug cleavage under the conditions of the assay. […] Sample supernatants are analyzed by LC-MSMS (HILIC column) for determination of d3-prodrug, d3-creatine and d3-creatinine levels (Table 8).

Data set [4] in a line: Metabolic stability in human liver microsomal incubations. It is filed as in vitro ADME. The conditions noted are these: human liver microsomes. The procedure: (§2) Incubations are conducted at 37° C. in the presence or absence of NADPH regenerating system to indicate whether metabolism proceeds via an NADPH requiring enzyme (i.e. P450s, FMOs, NADPH-P450 reductase or other oxidase enzymes). Duplicate samples of prodrugs and controls are prepared and analyzed. Stock solutions of prodrugs are prepared in DMSO (10 mM) and diluted to 0.05 mM in a mixture of 25% MeOH/pH 7.4 phosphate buffer to prepare spiking solutions. The prodrug spiking solutions are aliquoted (10 μL) into 96-well plates. Pre-warmed (37° C.) microsome solution (80 μL) is added to the wells designated for 5, 15, 30, 45 and 60 min time points and incubated for 10 min before initiating the reaction with 10 μL of NADPH regenerating solution. For t=0 min the quench solution (300 μL acetonitrile) is added directly to the prodrug containing well followed by the microsome solution and NADPH solution. Incubations of the prodrugs in heat-inactivated fractions or buffer are conducted to differentiate enzymatic from non-enzymatic degradation. At specified time points (e.g., 0, 5, 10, 20, 30 and 60 min), samples are taken and terminated with an equal volume of cold acetonitrile containing a suitable internal standard (e.g., labetalol, tolbutamide). After quenching, the plates are centrifuged at 4000 g for 20 min. Aliquots (100 μL) are transferred to the analysis plate and diluted with 400 μL ultrapure water (Millipore) for LC-MSMS quantitation of prodrug concentrations, and in some cases creatine and/or creatinine. Chromatography columns (e.g., ACE 5 Phenyl, Phenomenex C18 Synergi Hydro-RP, Atlantis HILIC Silica) are selected based upon the lipophilicity and polarity of each prodrug. LC-MSMS platforms (e.g., Sciex API4000, Sciex API6500) are also selected based on the requirements of each prodrug. The metabolic stability of the compounds of the present disclosure of in mouse liver microsomal incubations is shown in Table 6 and human liver microsomal incubations is shown in Table 7.

The nature of data set [5]: Metabolic stability in mouse liver microsomal incubations. It is filed as in vitro ADME. The procedure:
as §2
Background: Liver microsomes are vesicles of endoplasmic reticulum, rich in cytochrome P450 enzymes.

A short description of data set [6]: Stability of prodrugs in simulated intestinal fluid (SIF) with and without pancreatin. It is filed as in vitro ADME. The conditions noted are these: prodrug 10 μM, 37° C. The method, then:
For determination of stability in simulated intestinal fluid (SIF), prodrug (10 μM) is incubated in SIF (0.68% KH2PO4 w/v, 0.86% NaOH v/v, pH 6.8) with and without addition of pancreatin (1% w/v) at 37° C. At selected time points (e.g., 0, 15, 30, 60 and 120 min) 50 μL aliquots are removed and the reactions are terminated by addition of 150 μL of ice-cold acetonitrile. Samples are centrifuged at 4,000×g for 15 min at 4° C., and the supernatants are removed and analyzed for prodrug, creatine and creatinine concentrations by LC-MSMS (Table 3).

A short description of data set [7]: Stability in mouse plasma incubations. It is filed as in vitro ADME. The procedure: as §1
Data set [8] in a line: Stability of prodrugs in simulated gastric fluid (SGF) with and without pepsin. To be noted: prodrug 10 μM, 37° C. It is filed as in vitro ADME. The method, then:
For determination of stability in simulated gastric fluid (SGF), prodrug (10 μM) is incubated in SGF (0.2% NaCl w/v, 0.7% HCl v/v, pH1.2) with and without addition of pepsin (3.2 g of purified pepsin per liter with an activity of 800-2500 units per mg of protein) at 37° C. At selected time points (e.g., 0, 15, 30, 60 and 120 min) 50 μL aliquots are removed and neutralized by addition of 50 μL of 0.1M sodium bicarbonate solution, followed by 150 μL of ice-cold acetonitrile. Samples are centrifuged at 4,000×g for 15 min at 4° C., and the supernatants are removed and analyzed for prodrug, creatine and creatinine concentrations by LC-MSMS (Table 2).

The conditions of data set [9]: animals fed a diet containing up to 1% cyclocreatine; cited from earlier work.

`[2H]C([2H])([2H])N(CC(=O)O)c1nc(=O)o[nH]1` [Example 28, Step 4, 2-[(5-oxo-2H-1,2,4-oxadiazol-3-yl)-(trideuteriomethyl)amino]acetic acid] had a melting point of 150 to 155 °C.

Regarding `[2H]C([2H])([2H])N(CC(=O)OC)c1nc(=O)o[nH]1` [Example 28, Step 3, methyl 2-[(5-oxo-2H-1,2,4-oxadiazol-3-yl)-(trideuteriomethyl)amino]acetate], the melting point is 120 to 125 °C.

`CN(CC(=O)O)C(=N)N.O` [creatine monohydrate]: in [1], the adverse side effects entry is “without adverse side effects”.

As for `CN(CC(=O)O)c1noc(=O)[nH]1` [Example 27, 2-[methyl-(5-oxo-4H-1,2,4-oxadiazol-3-yl)amino]acetic acid], the melting point lay in the range of 150 to 155 °C.

Compound `CCOC(=O)CN(C)c1noc(=O)[nH]1` [Example 26, ethyl 2-[methyl-(5-oxo-4H-1,2,4-oxadiazol-3-yl)amino]acetate] showed a melting point of 120 to 123 °C.

`[2H]C([2H])([2H])N(CC(=O)OCCCCCCC)c1nc(=O)o[nH]1` [Compound E, heptyl 2-[(5-oxo-2H-1,2,4-oxadiazol-3-yl)-(trideuteriomethyl)amino]acetate] yielded a melting point of 110 to 115 °C. This compound also yielded a half-life at 10 μM in [2] of 2.57 h. Also, the “% Remaining 5 min” value in data set [2] (5 min, 10 μM) was 101%. In [2] (1 h, 10 μM), the “% Remaining 60 min” value was 75.6%. The “Concentration (μM) at 120 min, Prodrug” value in [3] (Negative Control (No MLH)) worked out at 240 µM. Moreover, the “Concentration (μM) at 120 min, Prodrug” value in data set [3] (Prodrug + MLH + NADH) amounted to 4.70 µM. The half-life at 10 μM in data set [4] is greater than 1.5 h. Besides, in [4] (no NADPH, 30 min, 10 μM), the “% Remaining (No NADPH) 30 min” value turned out to be 106%. Also, the CLint scaled at 10 μM in data set [4] (read-out: in vivo Clint) was less than 21 mL/min/kg. The “% Remaining (w/NADPH) 5 min” value in data set [4] (with NADPH, 5 min, 10 μM) came to 103.8%. The “% Remaining (w/NADPH) 30 min” value in data set [4] (with NADPH, 30 min, 10 μM) is reported as 82.1%. Also, in data set [5] (mouse liver microsomes, no NADPH, 30 min, 10 μM), the “% Remaining (No NADPH) 30 min” value stood at 15.6%. Moreover, the “% Remaining (w/NADPH) 5 min” value in data set [5] (mouse liver microsomes, with NADPH, 5 min, 10 μM) worked out at 89.1%. Besides, the “% Remaining (w/NADPH) 30 min” value in data set [5] (mouse liver microsomes, with NADPH, 30 min, 10 μM) amounted to 26.0%. In addition, in [5] (pH 7.4, mouse liver microsomes), the half-life at 10 μM amounted to 0.333 h. The CLint scaled at 10 μM in data set [5] (pH 7.4, mouse liver microsomes, read-out: in vivo Clint) stood at 407 mL/min/kg. Also, in data set [6] (simulated intestinal fluid (SIF) with pancreatin, SIF pH 6.8, title: with pancreatin (1% w/v), read-out: T1/2 (min) (+) pepsin), the half-life at 10 μM was greater than 360 min. In addition, the half-life at 10 μM in data set [6] (simulated intestinal fluid (SIF) without pancreatin, SIF pH 6.8, title: without pancreatin, read-out: T1/2 (min) (−) pepsin) is greater than 360 min. Further, the half-life at 10 μM in [7] is greater than 3 h. For the same compound, in data set [7] (10 μM, 5 min), the “% Remaining 5 min” value was determined as 100%. Also, the “% Remaining 60 min” value in [7] (10 μM, 60 min) amounted to 89.0%. Besides, the half-life at 10 μM in [8] (simulated gastric fluid (SGF) with pepsin, SGF pH 1.2 with pepsin, read-out: T1/2 (min) (+) pepsin) was greater than 360 min. Further, the half-life at 10 μM in data set [8] (simulated gastric fluid (SGF) without pepsin, SGF pH 1.2 without pepsin, read-out: T1/2 (min) (−) pepsin) is greater than 360 min.

On to `[2H]C([2H])([2H])N(CCO)c1nc(=O)o[nH]1` [Example 29, 3-[2-hydroxyethyl(trideuteriomethyl)amino]-2H-1,2,4-oxadiazol-5-one], for which the melting point fell in the range of 98 to 104 °C.

As for `NC1=NCCN1CC(=O)O` [cyclocreatine], the adverse effects entry in [9] is recorded as “do not exhibit adverse effects”.

`[2H]C([2H])([2H])N(CC(=O)OC(C)C)c1nc(=O)o[nH]1` [Example 28, Step 5C, isopropyl 2-[(5-oxo-2H-1,2,4-oxadiazol-3-yl)-(trideuteriomethyl)amino]acetate] came in with a melting point of 143 to 145 °C.

By melting point is commonly meant the temperature, or range, at which the solid turns liquid.
